In US10688099B2, “Methods for modulating the amount of RNA transcripts” (PTC Therapeutics, Inc., priority 2013, dated 2020):

System: RNA isoforms in PNN 1-46 SMA type I patient-derived fibroblasts
Assay: RNA Abundance Modulation (RNA isoform abundance, iFPM, HiSeq RNA sequencing)
Format: cell-based, human
Settings: 3 μM
Description: Cells from a cell line of interest are cultured in conditions sufficient to yield the number of cells capable of generating enough RNA for subsequent sequencing steps. Cells from the tested cell line are contacted with a compound described herein.
To culture said cells, they are seeded, at appropriate concentrations in a volume of media in a cell culture container and incubated for 4, 5, 6, 7, 8, 9, 10, or more hours. A concentrated solution of compound in a vehicle (e.g., DMSO) is then added in sufficient volume to result in the intended final concentration of the compound, for example 100 nM, 500 nM, 1 μM, 5 μM, 10 μM, 15 μM, 20 μM, or more. The cells may also be treated with vehicle alone, as a control. A number of replicates of each concentration or control may be made (e.g., 2 replicates). The cells are then incubated at a constant temperature appropriate for cell culture of the particular cell line (e.g., 37° C.) for 6, 12, 18, 24, 48, or more hours. After incubation, the growth medium is removed and the cells are washed with the appropriate buffer (e.g., PBS). Cells are then removed from adherence to the cell culture container by treatment with a solution containing trypsin, and the trypsin subsequently quenched with the appropriate volume of buffer (e.g., DMEM-FBS). The cells are then pelleted with gentle centrifugation (e.g., ≤90×g centrifugal force) and resuspended in a buffer to lyse the cells for extraction of RNA. The cell lysates may then be frozen (e.g., at −80° C.) or, alternately, may immediately be used in a procedure to purify the RNA (e.g. by use of the RNEASY PLUS® minikit). The RNA from cell lysates is eluted in the appropriate volume of buffer (e.g., RNEASE-FREE H2O®). The resulting purified RNA may then be sequenced (e.g., using RNASeq) or analyzed using a human exon array (e.g., by GENECHIP® human exon array) to determine changes in the RNA levels in those cells treated with compound compared to those cells treated only with DMSO. The purified RNA may also be quantified by other methods known in the art.
Using the RNA data obtained from sequencing, exon array, or other methods, a statistical analysis can reveal changes in the RNA levels of compound-treated compared with control. For example, t-test p-values may be calculated for the data obtained through sequencing and exon array methods in order to compare compound-treated cells to those treated with the DMSO control. […] Analysis of the sequencing and exon array data may then also yield predictions about the cause of the aberrant amount of an RNA transcript in the cells (e.g., perturbation of RNA splicing, RNA transcription, or RNA stability). These predictions may be further confirmed by methods known in the art. For example, RT-PCR and RT-qPCR may be used to confirm the change in amount of RNA transcripts for one or more particular transcripts of interest.
Following the methods described above in Example 1, PNN 1-46 SMA type I patient-derived fibroblasts were treated with 300 nM or 3 μM Compounds 774 and 808 in 0.5% DMSO.
700,000 cells were seeded in 10 mL of medium (DMEM plus 10% FBS) in a T-75 flask. Cells were allowed to attach for at least 4 hrs, after which 50 μL of a 200× compound solution (100% DMSO) was added to each well, and the plate was incubated at 37° C. for 24 hrs.
At the end of the incubation period, the supernatant was removed and the cells where washed with PBS. TrypLE (Invitrogen) express solution was added (e.g. 1.5 mL per one T75 flask). The flasks were incubated for 3 to 5 min at 37° C. The trypsin was then quenched, e.g., by adding 10 mL DMEM-FBS.
Next, the cells were pelleted using gentle centrifugation without exceeding 90×g centrifugal force. The supernatant was removed and the cell pellet was re-suspended in 600 μL RLT buffer (the RLT buffer was supplemented with beta-mercaptoethanol according to the RNeasy protocol manual) by pipetting up and down until the pellet was completely dissolved […]

CCc1nc(C)cn2nc(-c3cc(=O)n4cc(C5CCN(C)CC5)cc(C)c4n3)cc12 [Compound 774]
L2FC (x + 1) (TBC1D15 NR_027449): −2.621 | L2abs (Cpd-DMSO) (TBC1D15 NR_027449): 6.94 | abs (Cpd-DMSO) (TBC1D15 NR_027449): 123 iFPM | amp FC (x + 1) (TBC1D15 NR_027449): 6.15 | ave Cpd (TBC1D15 NR_027449): 23 iFPM | FC (x + 1) (TEP1 AB209669): 1.0000 | L2FC (x + 1) (TEP1 AB209669): 0.000 | L2abs (Cpd-DMSO) (TEP1 AB209669): 0 | abs (Cpd-DMSO) (TEP1 AB209669): 0 iFPM | amp FC (x + 1) (TEP1 AB209669): 1.00 | ave Cpd (TEP1 AB209669): 0 iFPM | FC (x + 1) (TEP1 AK303307): 1.3304 | L2FC (x + 1) (TEP1 AK303307): 0.412 | L2abs (Cpd-DMSO) (TEP1 AK303307): 1.91 | abs (Cpd-DMSO) (TEP1 AK303307): 4 iFPM | amp FC (x + 1) (TEP1 AK303307): 1.33 | ave Cpd (TEP1 AK303307): 14 iFPM | FC (x + 1) (TEP1 BC143812): 0.8125 | L2FC (x + 1) (TEP1 BC143812): −0.300 | L2abs (Cpd-DMSO) (TEP1 BC143812): 4.99 | abs (Cpd-DMSO) (TEP1 BC143812): 32 iFPM | amp FC (x + 1) (TEP1 BC143812): 1.23 | ave Cpd (TEP1 BC143812): 137 iFPM | FC (x + 1) (TEP1 BC143815): 0.0138 | L2FC (x + 1) (TEP1 BC143815): −6.184 | L2abs (Cpd-DMSO) (TEP1 BC143815): 6.16 | abs (Cpd-DMSO) (TEP1 BC143815): 72 iFPM | amp FC (x + 1) (TEP1 BC143815): 72.71 | ave Cpd (TEP1 BC143815): 0 iFPM | FC (x + 1) (TEP1 BX640983): 1.1188 | L2FC (x + 1) (TEP1 BX640983): 0.162 | L2abs (Cpd-DMSO) (TEP1 BX640983): 0.61 | abs (Cpd-DMSO) (TEP1 BX640983): 2 iFPM | amp FC (x + 1) (TEP1 BX640983): 1.12 | ave Cpd (TEP1 BX640983): 13 iFPM | FC (x + 1) (TEP1 NM_007110): 1.0236 | L2FC (x + 1) (TEP1 NM_007110): 0.034 | L2abs (Cpd-DMSO) (TEP1 NM_007110): 3.20 | abs (Cpd-DMSO) (TEP1 NM_007110): 9 iFPM | amp FC (x + 1) (TEP1 NM_007110): 1.02 | ave Cpd (TEP1 NM_007110): 397 iFPM | FC (x + 1) (TFCP2 AK308087): 0.8370 | L2FC (x + 1) (TFCP2 AK308087): −0.257 | L2abs (Cpd-DMSO) (TFCP2 AK308087): 4.27 | abs (Cpd-DMSO) (TFCP2 AK308087): 19 iFPM | amp FC (x + 1) (TFCP2 AK308087): 1.19 | ave Cpd (TFCP2 AK308087): 98 iFPM | FC (x + 1) (TFCP2 NM_005653): 0.8324 | L2FC (x + 1) (TFCP2 NM_005653): −0.265 | L2abs (Cpd-DMSO) (TFCP2 NM_005653): 7.35 | abs (Cpd-DMSO) (TFCP2 NM_005653): 163 iFPM | amp FC (x + 1) (TFCP2 NM_005653): 1.20 | ave Cpd (TFCP2 NM_005653): 808 iFPM | FC (x + 1) (TFCP2 NM_001173452): 4.0384 | L2FC (x + 1) (TFCP2 NM_001173452): 2.014 | L2abs (Cpd-DMSO) (TFCP2 NM_001173452): 7.49 | abs (Cpd-DMSO) (TFCP2 NM_001173452): 180 iFPM | amp FC (x + 1) (TFCP2 NM_001173452): 4.04 | ave Cpd (TFCP2 NM_001173452): 239 iFPM | FC (x + 1) (TFCP2 NM_001173453): 0.0531 | L2FC (x + 1) (TFCP2 NM_001173453): −4.236 | L2abs (Cpd-DMSO) (TFCP2 NM_001173453): 4.16 | abs (Cpd-DMSO) (TFCP2 NM_001173453): 18 iFPM | amp FC (x + 1) (TFCP2 NM_001173453): 18.84 | ave Cpd (TFCP2 NM_001173453): 0 iFPM | FC (x + 1) (TGFBRAP1 AK021697): 0.2793 | L2FC (x + 1) (TGFBRAP1 AK021697): −1.840 | L2abs (Cpd-DMSO) (TGFBRAP1 AK021697): 4.66 | abs (Cpd-DMSO) (TGFBRAP1 AK021697): 25 iFPM | amp FC (x + 1) (TGFBRAP1 AK021697): 3.58 | ave Cpd (TGFBRAP1 AK021697): 9 iFPM | FC (x + 1) (TGFBRAP1 NM_004257): 0.0064 | L2FC (x + 1) (TGFBRAP1 NM_004257): −7.294 | L2abs (Cpd-DMSO) (TGFBRAP1 NM_004257): 7.29 | abs (Cpd-DMSO) (TGFBRAP1 NM_004257): 156 iFPM
